Assays:
Test in all cases: competitive isoTOP-ABPP
Type in all cases: binding
[1] = molecular target: T1, GLOD4 Glyoxalase domain-containing protein 4 (Homo sapiens, UniProt Q9HC38); settings: for R value (DMSO/fragment) for probe 1 labeling: Q9HC38_K305; for R value (DMSO/fragment) for probe 1 labeling / isoTOP-ABPP reactivity ratio at lysine Q9HC38_K305 / isoTOP-ABPP ratio (R) at liganded lysine Q9HC38_K305: 50 uM, in vitro; for R value (DMSO/fragment) for probe 1 labeling / isoTOP-ABPP reactivity ratio at lysine Q9HC38_K305: 231 sol; for isoTOP-ABPP ratio (R) at liganded lysine Q9HC38_K305: sol, 231
T1 construct: endogenous in cells; host or cells: MDA-MB-231 (soluble fraction of lysate)
T1 sequence (Q9HC38 1-313): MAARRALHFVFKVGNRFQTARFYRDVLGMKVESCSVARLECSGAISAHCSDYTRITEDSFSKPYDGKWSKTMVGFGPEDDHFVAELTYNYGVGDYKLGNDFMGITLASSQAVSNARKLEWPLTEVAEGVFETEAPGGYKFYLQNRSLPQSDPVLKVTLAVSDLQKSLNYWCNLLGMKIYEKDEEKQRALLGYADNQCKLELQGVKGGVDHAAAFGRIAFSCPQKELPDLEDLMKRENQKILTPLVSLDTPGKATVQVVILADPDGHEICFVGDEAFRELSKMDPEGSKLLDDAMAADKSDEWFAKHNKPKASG
Summary of the method: (§1)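 Here, isoTOP-ABPP measures loss of STP-alkyne labeling at individual lysines after fragment exposure in lysate. Activated esters are dosed at 50 μM, guanidinylating agents at 100 μM; the probe follows at 0.1 mM for 1 h. R ≥4 marks a liganded lysine.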

[2] = molecular target: T2, NAA25 N-alpha-acetyltransferase 25, NatB auxiliary subunit (Homo sapiens, UniProt Q14CX7); settings: for R value (DMSO/fragment) for probe 1 labeling: Q14CX7_K575; for R value (DMSO/fragment) for probe 1 labeling / isoTOP-ABPP reactivity ratio at lysine Q14CX7_K575: 231 sol
T2 construct: isoTOP-ABPP experiments performed in cell lysates (in vitro); endogenous in cells; host or cells: soluble proteome of human cancer cell lines (MDA-MB-231; Ramos and Jurkat also prepared)
Summary of the method: as §1

[3] = molecular target: T3, ENOPH1 Enolase-phosphatase E1 (Homo sapiens, UniProt Q9UHY7); settings: for R value (DMSO/fragment) for probe 1 labeling: Q9UHY7_K111; for R value (DMSO/fragment) for probe 1 labeling / isoTOP-ABPP reactivity ratio at lysine Q9UHY7_K111 / isoTOP-ABPP ratio (R) at liganded lysine Q9UHY7_K111: 50 uM, in vitro; for R value (DMSO/fragment) for probe 1 labeling / isoTOP-ABPP reactivity ratio at lysine Q9UHY7_K111: 231 sol; for isoTOP-ABPP ratio (R) at liganded lysine Q9UHY7_K111: sol, 231
T3 construct: endogenous in cells; host or cells: MDA-MB-231 (soluble fraction of lysate)
Summary of the method: as §1

[4] = molecular target: T4, GOLGB1 Golgin subfamily B member 1 (Homo sapiens, UniProt Q14789); settings: for R value (DMSO/fragment) for probe 1 labeling: Q14789_K103; for R value (DMSO/fragment) for probe 1 labeling / isoTOP-ABPP reactivity ratio at lysine Q14789_K103 / isoTOP-ABPP ratio (R) at liganded lysine Q14789_K103: 50 uM, in vitro; for R value (DMSO/fragment) for probe 1 labeling / isoTOP-ABPP reactivity ratio at lysine Q14789_K103: 231 sol; for isoTOP-ABPP ratio (R) at liganded lysine Q14789_K103: sol, 231
T4 construct: isoTOP-ABPP experiments performed in cell lysates (in vitro); endogenous in cells; host or cells: soluble proteome of human cancer cell lines (MDA-MB-231, Ramos, Jurkat)
Summary of the method: as §1

[5] = molecular target: T5, GBAS Protein NipSnap homolog 2 (Homo sapiens, UniProt O75323); settings: for R value (DMSO/fragment) for probe 1 labeling: O75323_K75; for R value (DMSO/fragment) for probe 1 labeling / isoTOP-ABPP reactivity ratio at lysine O75323_K75 / isoTOP-ABPP ratio (R) at liganded lysine O75323_K75: 50 uM, in vitro; for R value (DMSO/fragment) for probe 1 labeling / isoTOP-ABPP reactivity ratio at lysine O75323_K75: 231 sol; for isoTOP-ABPP ratio (R) at liganded lysine O75323_K75: sol, 231
T5 construct: isoTOP-ABPP experiments performed in cell lysates (in vitro); endogenous in cells; host or cells: MDA-MB-231 soluble lysate
T5 sequence (O75323 24-286): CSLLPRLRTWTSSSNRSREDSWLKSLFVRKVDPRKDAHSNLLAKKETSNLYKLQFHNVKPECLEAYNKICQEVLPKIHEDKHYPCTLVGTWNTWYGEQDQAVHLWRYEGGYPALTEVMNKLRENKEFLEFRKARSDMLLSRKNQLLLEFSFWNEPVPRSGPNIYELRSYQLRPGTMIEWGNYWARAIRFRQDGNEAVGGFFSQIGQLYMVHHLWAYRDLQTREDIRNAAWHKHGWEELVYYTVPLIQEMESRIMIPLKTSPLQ
Summary of the method: as §1

T4 sequence (Q14789 whole entry, the tested form may be a part): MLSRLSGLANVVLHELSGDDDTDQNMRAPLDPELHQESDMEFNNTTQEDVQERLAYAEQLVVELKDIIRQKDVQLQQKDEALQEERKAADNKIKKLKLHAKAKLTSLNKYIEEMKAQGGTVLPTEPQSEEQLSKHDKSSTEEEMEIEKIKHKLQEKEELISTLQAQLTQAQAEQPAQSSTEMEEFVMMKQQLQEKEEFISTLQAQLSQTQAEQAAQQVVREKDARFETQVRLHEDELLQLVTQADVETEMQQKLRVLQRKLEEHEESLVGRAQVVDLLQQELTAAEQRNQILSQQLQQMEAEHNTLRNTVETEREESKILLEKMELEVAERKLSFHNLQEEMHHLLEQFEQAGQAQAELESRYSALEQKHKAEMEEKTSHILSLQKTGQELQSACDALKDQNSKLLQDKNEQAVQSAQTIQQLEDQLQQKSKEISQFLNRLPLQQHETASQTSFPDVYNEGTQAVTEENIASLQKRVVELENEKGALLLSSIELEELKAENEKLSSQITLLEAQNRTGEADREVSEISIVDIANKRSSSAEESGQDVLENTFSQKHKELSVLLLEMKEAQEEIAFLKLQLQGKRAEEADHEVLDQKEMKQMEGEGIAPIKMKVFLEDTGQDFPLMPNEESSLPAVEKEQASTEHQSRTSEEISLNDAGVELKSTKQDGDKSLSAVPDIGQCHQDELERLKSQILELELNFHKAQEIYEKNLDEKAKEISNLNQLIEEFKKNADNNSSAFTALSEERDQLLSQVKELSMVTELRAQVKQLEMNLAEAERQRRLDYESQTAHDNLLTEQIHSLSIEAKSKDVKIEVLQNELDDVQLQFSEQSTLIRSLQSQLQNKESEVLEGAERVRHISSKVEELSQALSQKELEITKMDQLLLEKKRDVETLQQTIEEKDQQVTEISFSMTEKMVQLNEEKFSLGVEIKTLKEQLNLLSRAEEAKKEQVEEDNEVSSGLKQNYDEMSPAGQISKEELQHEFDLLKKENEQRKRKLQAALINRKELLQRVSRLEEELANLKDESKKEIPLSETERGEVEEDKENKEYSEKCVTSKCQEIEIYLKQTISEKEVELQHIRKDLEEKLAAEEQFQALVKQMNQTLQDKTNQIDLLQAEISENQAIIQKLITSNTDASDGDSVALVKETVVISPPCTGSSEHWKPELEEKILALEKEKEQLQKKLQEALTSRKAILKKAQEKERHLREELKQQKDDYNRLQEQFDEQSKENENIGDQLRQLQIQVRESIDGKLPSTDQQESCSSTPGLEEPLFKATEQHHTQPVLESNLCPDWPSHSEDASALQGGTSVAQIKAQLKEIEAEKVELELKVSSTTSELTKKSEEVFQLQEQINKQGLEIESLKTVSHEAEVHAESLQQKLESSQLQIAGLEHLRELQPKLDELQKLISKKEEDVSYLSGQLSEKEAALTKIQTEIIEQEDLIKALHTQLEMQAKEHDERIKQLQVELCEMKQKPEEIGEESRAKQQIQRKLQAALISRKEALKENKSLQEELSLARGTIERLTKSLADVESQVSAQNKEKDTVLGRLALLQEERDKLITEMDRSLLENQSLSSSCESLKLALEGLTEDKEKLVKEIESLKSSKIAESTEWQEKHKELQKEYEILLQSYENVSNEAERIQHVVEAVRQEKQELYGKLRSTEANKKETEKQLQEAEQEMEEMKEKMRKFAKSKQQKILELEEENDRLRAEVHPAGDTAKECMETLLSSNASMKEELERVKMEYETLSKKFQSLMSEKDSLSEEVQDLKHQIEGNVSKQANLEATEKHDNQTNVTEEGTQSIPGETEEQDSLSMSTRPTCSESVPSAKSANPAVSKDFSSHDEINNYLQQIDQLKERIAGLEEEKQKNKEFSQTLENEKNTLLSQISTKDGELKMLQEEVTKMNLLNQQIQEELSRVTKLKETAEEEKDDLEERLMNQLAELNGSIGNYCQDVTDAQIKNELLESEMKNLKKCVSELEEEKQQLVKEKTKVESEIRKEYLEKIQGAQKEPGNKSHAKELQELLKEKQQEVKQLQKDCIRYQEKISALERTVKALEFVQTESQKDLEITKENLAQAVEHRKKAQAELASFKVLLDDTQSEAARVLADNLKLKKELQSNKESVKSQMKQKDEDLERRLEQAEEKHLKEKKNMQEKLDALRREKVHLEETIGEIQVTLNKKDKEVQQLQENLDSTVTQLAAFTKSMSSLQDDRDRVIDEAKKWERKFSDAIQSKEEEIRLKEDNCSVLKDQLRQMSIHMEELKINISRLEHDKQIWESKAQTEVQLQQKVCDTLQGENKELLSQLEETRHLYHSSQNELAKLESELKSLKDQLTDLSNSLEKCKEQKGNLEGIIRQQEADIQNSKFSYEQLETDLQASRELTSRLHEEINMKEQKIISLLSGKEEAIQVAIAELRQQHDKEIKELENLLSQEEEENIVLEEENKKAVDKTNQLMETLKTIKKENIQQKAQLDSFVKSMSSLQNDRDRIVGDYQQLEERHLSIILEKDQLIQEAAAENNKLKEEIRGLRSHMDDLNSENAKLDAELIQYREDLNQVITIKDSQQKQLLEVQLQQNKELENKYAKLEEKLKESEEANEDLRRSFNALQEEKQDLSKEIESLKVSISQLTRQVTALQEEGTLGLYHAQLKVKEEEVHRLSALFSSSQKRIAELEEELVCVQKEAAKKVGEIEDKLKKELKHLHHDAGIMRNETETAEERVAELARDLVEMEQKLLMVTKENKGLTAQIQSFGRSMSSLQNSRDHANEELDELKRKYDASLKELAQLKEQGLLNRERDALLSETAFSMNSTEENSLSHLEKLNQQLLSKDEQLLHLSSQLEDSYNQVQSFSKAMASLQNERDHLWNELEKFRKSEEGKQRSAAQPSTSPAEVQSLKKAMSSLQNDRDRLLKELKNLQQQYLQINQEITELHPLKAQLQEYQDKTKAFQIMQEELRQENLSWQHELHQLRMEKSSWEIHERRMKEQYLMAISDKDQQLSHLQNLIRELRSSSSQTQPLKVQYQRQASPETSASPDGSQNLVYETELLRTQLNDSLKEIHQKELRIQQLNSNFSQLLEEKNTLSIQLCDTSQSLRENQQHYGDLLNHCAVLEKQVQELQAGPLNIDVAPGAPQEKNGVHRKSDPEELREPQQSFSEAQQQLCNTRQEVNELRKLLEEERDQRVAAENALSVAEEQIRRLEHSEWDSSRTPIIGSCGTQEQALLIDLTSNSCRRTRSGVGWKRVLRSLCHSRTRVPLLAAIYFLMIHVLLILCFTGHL
T2 sequence (Q14CX7 whole entry, the tested form may be a part): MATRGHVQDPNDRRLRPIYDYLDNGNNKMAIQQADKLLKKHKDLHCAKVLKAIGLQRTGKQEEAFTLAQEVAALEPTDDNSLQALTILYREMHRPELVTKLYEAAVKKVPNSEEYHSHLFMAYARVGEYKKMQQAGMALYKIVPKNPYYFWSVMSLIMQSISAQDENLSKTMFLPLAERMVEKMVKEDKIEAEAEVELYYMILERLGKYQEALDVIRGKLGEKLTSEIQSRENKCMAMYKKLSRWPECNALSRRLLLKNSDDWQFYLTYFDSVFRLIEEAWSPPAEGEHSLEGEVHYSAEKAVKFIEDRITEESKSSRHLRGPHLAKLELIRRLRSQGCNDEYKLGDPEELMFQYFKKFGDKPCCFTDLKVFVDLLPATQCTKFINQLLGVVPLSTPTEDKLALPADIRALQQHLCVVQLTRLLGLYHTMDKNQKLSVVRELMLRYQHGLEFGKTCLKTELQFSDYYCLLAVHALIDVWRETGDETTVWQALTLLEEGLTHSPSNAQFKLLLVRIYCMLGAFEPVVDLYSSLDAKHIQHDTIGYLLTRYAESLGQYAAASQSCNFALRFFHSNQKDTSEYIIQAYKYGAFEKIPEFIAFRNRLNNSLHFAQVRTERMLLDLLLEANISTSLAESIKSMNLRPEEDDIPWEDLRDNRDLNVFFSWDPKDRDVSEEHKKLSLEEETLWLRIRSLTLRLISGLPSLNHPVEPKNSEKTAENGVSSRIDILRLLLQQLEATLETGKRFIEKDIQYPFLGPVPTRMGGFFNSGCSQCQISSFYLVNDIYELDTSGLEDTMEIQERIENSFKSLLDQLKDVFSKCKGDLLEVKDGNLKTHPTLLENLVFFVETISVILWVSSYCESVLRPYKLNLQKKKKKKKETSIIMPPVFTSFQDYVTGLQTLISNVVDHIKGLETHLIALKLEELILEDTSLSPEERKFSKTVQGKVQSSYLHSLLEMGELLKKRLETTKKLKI
T3 sequence (Q9UHY7 whole entry, the tested form may be a part): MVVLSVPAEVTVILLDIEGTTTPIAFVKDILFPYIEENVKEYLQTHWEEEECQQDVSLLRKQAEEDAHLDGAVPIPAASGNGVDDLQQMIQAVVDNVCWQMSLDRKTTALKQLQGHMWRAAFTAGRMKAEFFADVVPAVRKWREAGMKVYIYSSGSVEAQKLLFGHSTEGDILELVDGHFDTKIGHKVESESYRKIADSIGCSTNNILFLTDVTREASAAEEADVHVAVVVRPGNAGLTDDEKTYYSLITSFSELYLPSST

O=C(CCc1cn(-c2ccccc2)nc1-c1ccccc1)Oc1c(F)c(F)c(F)c(F)c1F [fragment 19, Pentafluorophenyl 3-(1,3-diphenyl-1H-pyrazol-4-yl)propanoate]
R value (DMSO/fragment) for probe 1 labeling [1]: 0.9 | R value (DMSO/fragment) for probe 1 labeling ([2]; 50 uM, in vitro): 1.0 | R value (DMSO/fragment) for probe 1 labeling [3]: 1.0 | R value (DMSO/fragment) for probe 1 labeling [4]: 0.9 | R value (DMSO/fragment) for probe 1 labeling [5]: 1.0

O=C(Oc1c(F)c(F)c(F)c(F)c1F)C(c1ccccc1)c1ccccc1 [fragment 20, Pentafluorophenyl 2,2-diphenylacetate]
R value (DMSO/fragment) for probe 1 labeling [1]: 0.8 | R value (DMSO/fragment) for probe 1 labeling ([2]; 50 uM, in vitro): 1.1 | R value (DMSO/fragment) for probe 1 labeling [3]: 1.0 | R value (DMSO/fragment) for probe 1 labeling [4]: 1.0 | R value (DMSO/fragment) for probe 1 labeling [5]: 0.9

O=C(Oc1c(F)c(F)c(F)c(F)c1F)c1cc(C(F)(F)F)cc(C(F)(F)F)c1 [fragment 21, Pentafluorophenyl 3,5-bis(trifluoromethyl)benzoate]
R value (DMSO/fragment) for probe 1 labeling [1]: 0.8 | R value (DMSO/fragment) for probe 1 labeling ([2]; 50 uM, in vitro): 0.9 | R value (DMSO/fragment) for probe 1 labeling [3]: 1.0 | R value (DMSO/fragment) for probe 1 labeling [4]: 1.0 | R value (DMSO/fragment) for probe 1 labeling [5]: 0.8

Cn1cc(CC(=O)Oc2c(F)c(F)c(F)c(F)c2F)c2ccccc21 [fragment 22, Pentafluorophenyl 2-(1-methyl-1H-indol-3-yl)acetate]
R value (DMSO/fragment) for probe 1 labeling [1]: 0.7 | R value (DMSO/fragment) for probe 1 labeling ([2]; 50 uM, in vitro): 2.2 | R value (DMSO/fragment) for probe 1 labeling [3]: 1.4 | R value (DMSO/fragment) for probe 1 labeling [4]: 1.0 | R value (DMSO/fragment) for probe 1 labeling [5]: 1.5

COc1cc(CCC(=O)Oc2c(F)c(F)c(F)c(F)c2F)cc(OC)c1OC [fragment 23, Pentafluorophenyl 3-(3,4,5-trimethoxyphenyl)propanoate]
R value (DMSO/fragment) for probe 1 labeling [1]: 0.9 | R value (DMSO/fragment) for probe 1 labeling [3]: 1.3 | R value (DMSO/fragment) for probe 1 labeling [4]: 1.0 | R value (DMSO/fragment) for probe 1 labeling [5]: 1.1

O=C(Oc1c(F)c(F)c(F)c(F)c1F)C1CCN(C(=O)OCc2ccccc2)CC1 [fragment 24, 1-Benzyl 4-(pentafluorophenyl) piperidine-1,4-dicarboxylate]
isoTOP-ABPP reactivity ratio at lysine Q9HC38_K305 [1]: 1.5 | isoTOP-ABPP reactivity ratio at lysine Q14CX7_K575 ([2]; 50 uM, in vitro): 1.1 | isoTOP-ABPP reactivity ratio at lysine Q9UHY7_K111 [3]: 1.4 | isoTOP-ABPP reactivity ratio at lysine Q14789_K103 [4]: 1.0 | isoTOP-ABPP reactivity ratio at lysine O75323_K75 [5]: 1.0

O=C(Oc1ccc([N+](=O)[O-])cc1[N+](=O)[O-])c1cc(C(F)(F)F)cc(C(F)(F)F)c1 [fragment 31, 2,4-Dinitrophenyl 3,5-bis(trifluoromethyl)benzoate]
isoTOP-ABPP reactivity ratio at lysine Q9HC38_K305 [1]: 0.5 | isoTOP-ABPP reactivity ratio at lysine Q14CX7_K575 ([2]; 50 uM, in vitro): 1.2 | isoTOP-ABPP reactivity ratio at lysine Q14789_K103 [4]: 0.9 | isoTOP-ABPP reactivity ratio at lysine O75323_K75 [5]: 0.8

Cn1cc(CC(=O)Oc2ccc([N+](=O)[O-])cc2[N+](=O)[O-])c2ccccc21 [fragment 32, 2,4-Dinitrophenyl 2-(1-methyl-1H-indol-3-yl)acetate]
isoTOP-ABPP reactivity ratio at lysine Q14CX7_K575 ([2]; 50 uM, in vitro): 2.4 | isoTOP-ABPP reactivity ratio at lysine Q9UHY7_K111 [3]: 1.3 | isoTOP-ABPP reactivity ratio at lysine Q14789_K103 [4]: 7.0

O=C(Oc1ccc([N+](=O)[O-])cc1[N+](=O)[O-])C1CCN(C(=O)OCc2ccccc2)CC1 [fragment 34, 1-Benzyl 4-(2,4-dinitrophenyl) piperidine-1,4-dicarboxylate]
isoTOP-ABPP ratio (R) at liganded lysine Q9HC38_K305 [1]: 20.0 | isoTOP-ABPP ratio (R) at liganded lysine Q9UHY7_K111 [3]: 0.9 | isoTOP-ABPP ratio (R) at liganded lysine Q14789_K103 [4]: 0.9

O=C(CCc1coc2cc(F)ccc2c1=O)Oc1ccc([N+](=O)[O-])cc1[N+](=O)[O-] [fragment 36, 2,4-Dinitrophenyl 3-(7-fluoro-4-oxo-4H-chromen-3-yl)propanoate]
isoTOP-ABPP ratio (R) at liganded lysine Q14CX7_K575 ([2]; 50 uM, in vitro, sol, 231): 1.5 | isoTOP-ABPP ratio (R) at liganded lysine Q9UHY7_K111 [3]: 0.9 | isoTOP-ABPP ratio (R) at liganded lysine Q14789_K103 [4]: 0.9 | isoTOP-ABPP ratio (R) at liganded lysine O75323_K75 [5]: 20.0

O=C(CC12CC3CC(CC(C3)C1)C2)Oc1ccc([N+](=O)[O-])cc1[N+](=O)[O-] [fragment 38, 2,4-Dinitrophenyl 2-(adamantan-1-yl)acetate]
isoTOP-ABPP ratio (R) at liganded lysine Q9HC38_K305 [1]: 20.0 | isoTOP-ABPP ratio (R) at liganded lysine Q9UHY7_K111 [3]: 1.1 | isoTOP-ABPP ratio (R) at liganded lysine Q14789_K103 [4]: 0.9 | isoTOP-ABPP ratio (R) at liganded lysine O75323_K75 [5]: 1.3

CC(C)(C)OC(=O)NCCCC(=O)Oc1ccc([N+](=O)[O-])cc1[N+](=O)[O-] [fragment 41, 2,4-Dinitrophenyl 4-((tert-butoxycarbonyl)amino)butanoate]
isoTOP-ABPP ratio (R) at liganded lysine Q9HC38_K305 [1]: 20.0 | isoTOP-ABPP ratio (R) at liganded lysine Q9UHY7_K111 [3]: 1.1 | isoTOP-ABPP ratio (R) at liganded lysine Q14789_K103 [4]: 1.1 | isoTOP-ABPP ratio (R) at liganded lysine O75323_K75 [5]: 1.8

O=C(Oc1ccc([N+](=O)[O-])cc1[N+](=O)[O-])C(c1ccccc1)(c1ccccc1)c1ccccc1 [fragment 42, 2,4-Dinitrophenyl 2,2,2-triphenylacetate]
isoTOP-ABPP ratio (R) at liganded lysine Q9HC38_K305 [1]: 0.9 | isoTOP-ABPP ratio (R) at liganded lysine Q14789_K103 [4]: 0.9 | isoTOP-ABPP ratio (R) at liganded lysine O75323_K75 [5]: 0.9

CC(=O)Oc1ccc([N+](=O)[O-])cc1[N+](=O)[O-] [fragment 43, 2,4-Dinitrophenyl acetate]
isoTOP-ABPP ratio (R) at liganded lysine Q9HC38_K305 [1]: 0.7 | isoTOP-ABPP ratio (R) at liganded lysine Q9UHY7_K111 [3]: 0.9 | isoTOP-ABPP ratio (R) at liganded lysine Q14789_K103 [4]: 1.0 | isoTOP-ABPP ratio (R) at liganded lysine O75323_K75 [5]: 1.6

O=C(ON1C(=O)CCC1=O)c1cc(C(F)(F)F)cc(C(F)(F)F)c1 [fragment 46, 3,5-Bis(trifluoromethyl)benzoic acid NHS ester]
isoTOP-ABPP ratio, lysine Q9UHY7_K111 ([3]; 50 uM_231_sol_in vitro): 1.1 | isoTOP-ABPP ratio, lysine Q14789_K103 ([4]; 50 uM_231_sol_in vitro): 1.2 | isoTOP-ABPP ratio, lysine O75323_K75 ([5]; 50 uM_231_sol_in vitro): 0.9

O=C(Oc1c(F)c(F)c(C(F)(F)F)c(F)c1F)c1cc(C(F)(F)F)cc(C(F)(F)F)c1 [fragment 47, 2,3,5,6-Tetrafluoro-4-(trifluoromethyl)phenyl 3,5-bis(trifluoromethyl)benzoate]
isoTOP-ABPP ratio, lysine Q9UHY7_K111 ([3]; 50 uM_231_sol_in vitro): 7.8 | isoTOP-ABPP ratio, lysine Q14789_K103 ([4]; 50 uM_231_sol_in vitro): 1.0 | isoTOP-ABPP ratio, lysine O75323_K75 ([5]; 50 uM_231_sol_in vitro): 1.0

O=C(Oc1c(F)c(F)cc(F)c1F)c1cc(C(F)(F)F)cc(C(F)(F)F)c1 [fragment 48, 2,3,5,6-Tetrafluorophenyl 3,5-bis(trifluoromethyl)benzoate]
isoTOP-ABPP ratio, lysine Q14CX7_K575 ([2]; 50 uM_231_sol_in vitro): 1.1 | isoTOP-ABPP ratio, lysine Q9UHY7_K111 ([3]; 50 uM_231_sol_in vitro): 0.9 | isoTOP-ABPP ratio, lysine Q14789_K103 ([4]; 50 uM_231_sol_in vitro): 1.1 | isoTOP-ABPP ratio, lysine O75323_K75 ([5]; 50 uM_231_sol_in vitro): 0.9

CC(C)(C)OC(=O)N=C(NC(=O)OC(C)(C)C)n1cccn1 [fragment 50, reference compound]
isoTOP-ABPP ratio, lysine Q9HC38_K305 ([1]; 100 uM_231_sol_in vitro): 1.1 | isoTOP-ABPP ratio, lysine Q9UHY7_K111 ([3]; 100 uM_231_sol_in vitro): 15.1 | isoTOP-ABPP ratio, lysine Q14789_K103 ([4]; 100 uM_231_sol_in vitro): 1.4 | isoTOP-ABPP ratio, lysine O75323_K75 ([5]; 100 uM_231_sol_in vitro): 1.3
